Some test systems named below: OVCAR-8 ovarian; SF-539 CNS; NCI-H522 lung; K-562 leukemia; PC-3 prostate; CCRF-CEM leukemia; A549 NSCLC; ACHN renal; HT29 colon; MDA-MB-231 breast.
Holding throughout (assay): growth of human tumour cells (NCI), 48 h

Several values for one entry are separate records, joined by “and”; a condition that tells them apart may be missing. Equal values may be shown once.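 Each compound was tested at five concentrations against cells in 96-well plates for 48 hours. The concentration for 50% growth inhibition is given as GI50. The concentration for full growth arrest is given as TGI.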

Consider `O=c1cc(CNC2CCCC2)[nH]c(=O)[nH]1`, for which the TGI in the test on OVCAR-8 ovarian, with SF-539 CNS, in the test on NCI-H522 lung, in the test on K-562 leukemia, with PC-3 prostate and in the test on CCRF-CEM leukemia was above 100 µM throughout. The TGI with A549 NSCLC, with ACHN renal, in the test with HT29 colon and in the test with MDA-MB-231 breast was above 100 µM each time.
Take `C=C(C)[C@@H]1CC[C@]2(C(=O)O)CC[C@]3(C)[C@H](CC[C@@H]4[C@@]5(C)CC(=O)C(C)(C)[C@@H]5CC[C@]43C)[C@@H]12`: the TGI in the test with OVCAR-8 ovarian was above 25 µM; with SF-539 CNS, 14.7 µM; in the test with NCI-H522 lung, 19.7 µM; in the test with K-562 leukemia, above 25 µM; with PC-3 prostate, 19.7 µM; in the test with CCRF-CEM leukemia, 2.86 µM. Also, the TGI in the test with A549 NSCLC is above 25 µM; in the test on ACHN renal it was above 25 µM; with HT29 colon, above 25 µM; with MDA-MB-231 breast it was 14.3 µM.
Regarding `C=C(C)C(=O)CC[C@@H](C)[C@H]1[C@@H](OC2OC(CO)C(O)C(O)C2O)C[C@@]2(C)[C@@H]3C[C@H](O)C4C(C)(C)[C@@H](OC5OC(CO)C(O)C(O)C5O)CC[C@@]45C[C@@]35CC[C@]12C` (stereo not given in full), the TGI in the test on OVCAR-8 ovarian, with SF-539 CNS, with NCI-H522 lung, with K-562 leukemia, in the test on PC-3 prostate and in the test on CCRF-CEM leukemia was above 100 µM throughout. Moreover, the TGI in the test with A549 NSCLC, in the test with ACHN renal, in the test on HT29 colon and in the test on MDA-MB-231 breast was above 100 µM each time.
Regarding `O=C(Cn1c(=O)oc2ccc(C(=O)c3ccc(F)cc3)cc21)c1ccc([N+](=O)[O-])cc1`, the TGI with OVCAR-8 ovarian is above 100 µM; with SF-539 CNS, above 100 µM; with NCI-H522 lung, 80.4 µM; in the test with K-562 leukemia, above 100 µM; with PC-3 prostate, 85.9 µM; with CCRF-CEM leukemia, above 100 µM. In addition, the TGI in the test with A549 NSCLC, in the test with ACHN renal, in the test on HT29 colon and with MDA-MB-231 breast was above 100 µM throughout.
In the case of `COc1cc(/C=C/C(=O)OCC23CC[C@@]4(C(=O)O)CCC(C)[C@H](C)C4C2=CCC2[C@@]4(C)CC[C@H](O)C(C)(C)C4CC[C@]23C)ccc1O` (stereo not given in full), the TGI with OVCAR-8 ovarian is 35.7 µM; in the test with SF-539 CNS, 31.4 µM; with NCI-H522 lung, 31.2 µM; with K-562 leukemia it was above 100 µM; in the test with PC-3 prostate, 41.5 µM; in the test with CCRF-CEM leukemia, 22.3 µM. Moreover, the TGI in the test with A549 NSCLC was 22.6 µM; in the test with ACHN renal, 8.24 µM; in the test on HT29 colon, 42 µM; in the test with MDA-MB-231 breast, above 100 µM.
`CC[n+]1cnc(N)c2c(-c3ccc(Cl)cc3)cn(-c3ccc(C)cc3)c21`: the TGI in the test on OVCAR-8 ovarian was found to be 32.7 µM; with SF-539 CNS, 28.5 µM; with NCI-H522 lung it was 31.2 µM; in the test with K-562 leukemia, 20.7 µM; in the test with PC-3 prostate, 25 µM; in the test on CCRF-CEM leukemia it was 22.7 µM. The TGI with A549 NSCLC stood at 25.7 µM; in the test with ACHN renal it was 25.6 µM; with HT29 colon it was 17.7 µM; with MDA-MB-231 breast it was 31.7 µM.
As to `O=C1CSC2(CC(/C=C/c3ccccc3)=NN2c2cccc(S(=O)(=O)O)c2)N1c1nc2ccccc2s1` (stereo not given), the TGI in the test with OVCAR-8 ovarian is 35.8 µM; in the test on SF-539 CNS, above 100 µM; in the test with NCI-H522 lung it was 37 µM; with K-562 leukemia, above 100 µM; in the test with PC-3 prostate, 59.3 µM; in the test on CCRF-CEM leukemia, 49.5 µM. Also, the TGI was above 100 µM in the test with A549 NSCLC, above 100 µM in the test on ACHN renal, above 100 µM with HT29 colon and 47.8 µM with MDA-MB-231 breast.
As to `CN(C)CCNc1ccc(C(=O)NCCCN(C)CCCNC(=O)c2ccc(NCCN(C)C)c3c(=O)c4ccccc4[nH]c23)c2[nH]c3ccccc3c(=O)c12`, the TGI is 2.39 µM in the test on OVCAR-8 ovarian; below 0.0309 µM in the test with SF-539 CNS; 0.0685 µM with NCI-H522 lung; 5.27 µM with K-562 leukemia; 3.44 µM with PC-3 prostate; 1.02 µM with CCRF-CEM leukemia. Also, the TGI came to 0.318 µM in the test with A549 NSCLC, 6.24 µM with ACHN renal, 0.903 µM in the test on HT29 colon and 0.388 µM with MDA-MB-231 breast.
Consider `Clc1ccc(-c2ccc(-c3nnc(CCc4nnc(-c5ccc(-c6ccc(Cl)cc6)o5)o4)o3)o2)cc1`, for which the TGI is above 100 µM in the test with OVCAR-8 ovarian; above 100 µM in the test with SF-539 CNS; above 100 µM in the test with NCI-H522 lung; above 61.2 µM in the test on K-562 leukemia; above 100 µM in the test on PC-3 prostate; 16.9 µM with CCRF-CEM leukemia. In addition, the TGI in the test on A549 NSCLC, in the test on ACHN renal, with HT29 colon and with MDA-MB-231 breast was above 100 µM throughout.
With `O=C(O)[C@H]1[C@@H](C2CCCCC2)O[C@@H](C2CCCCC2)O[C@H]1C(F)(F)F`, the TGI is 45.5 µM in the test on OVCAR-8 ovarian; above 100 µM with SF-539 CNS; above 100 µM in the test with NCI-H522 lung; above 100 µM in the test with K-562 leukemia; 32.1 µM in the test on PC-3 prostate; 47.7 µM with CCRF-CEM leukemia. The TGI in the test on A549 NSCLC came to 42.4 µM; with ACHN renal, 32.7 µM; in the test on HT29 colon, 44 µM; with MDA-MB-231 breast it was 36.2 µM.
Consider `CCOC(=O)c1cccc(NC(=O)CCl)c1`, for which the TGI in the test with OVCAR-8 ovarian is above 30.1 µM; in the test on SF-539 CNS, 5.78 µM; in the test on NCI-H522 lung, 3.49 µM; in the test with K-562 leukemia, 29 µM; in the test with PC-3 prostate it was 18.1 µM; in the test on CCRF-CEM leukemia, 10.6 µM. Moreover, the TGI in the test with A549 NSCLC came out at 29.8 µM; with ACHN renal it was 9.19 µM; in the test on HT29 colon, 14.1 µM; in the test with MDA-MB-231 breast, 14.5 µM.
For `O=C1NC(N/N=C\C(O)C(O)C(O)CO)=N/C1=C/c1ccccc1` (stereo not given), the TGI in the test on OVCAR-8 ovarian, in the test on SF-539 CNS, in the test with NCI-H522 lung, in the test with K-562 leukemia, in the test on PC-3 prostate and in the test on CCRF-CEM leukemia was above 100 µM in each case. The TGI in the test on A549 NSCLC, in the test with ACHN renal, in the test on HT29 colon and with MDA-MB-231 breast was above 100 µM in each case. Further, the GI50 was > 100 µM and 34.3 µM with SF-539 CNS; > 100 µM and 46.5 µM with NCI-H522 lung; > 100 µM and 22.7 µM in the test on K-562 leukemia; > 100 µM and 48.9 µM in the test on PC-3 prostate; 65.9 µM and 32.7 µM with CCRF-CEM leukemia.
As to `O=S(=O)(Oc1ccc2oc3ccccc3c2c1-c1c(OS(=O)(=O)C(F)(F)F)ccc2oc3ccccc3c12)C(F)(F)F`, the TGI in the test on OVCAR-8 ovarian, in the test on SF-539 CNS, in the test on NCI-H522 lung, in the test on K-562 leukemia, in the test with PC-3 prostate and with CCRF-CEM leukemia was above 100 µM throughout. In addition, the TGI in the test on A549 NSCLC, in the test on ACHN renal, with HT29 colon and with MDA-MB-231 breast was above 100 µM each time.

Values taken from PubChem BioAssay (NCI).
